According to paper PMC5481817, “Developing Targeted Hybrid Imaging Probes by Chelator Scaffolding” (Bioconjugate chemistry, 2017):
Like-named read-outs stand apart in the source and are kept apart here. *1 amine or outer side, *2 acyl side, *3 side chain or, on linkers, in order; H or OH if unused. Where a SMILES comes first, the peptide text is derived from it. Bridges are numbered along the chain shown (N, C = ends). Roman numbers before positions name the chains, in order. [ ]: non-standard residue; d: D form. X2 = CC1=CC(=O)N(O)CCCC(NC(=O)CCN2C(=O)CC([*:2])C2=O)C(=O)OCCC(C)=CC(=O)N(O)CCCC(NC(=O)CCN2C(=O)CC([*:1])C2=O)C(=O)OCCC(C)=CC(=O)N(O)CCCC(NC(=O)CCCCC[N+]2=C(C=CC3=CC(=CC=C4N(C)c5ccc(S(=O)(=O)O)cc5C4(C)C)CCC3)C(C)(C)c3cc(S(=O)(=O)[O-])ccc32)C(=O)OCC1; Mpa = O=C(O)CCS

Legend:
[1] = molecular target: T1, human CCK-2 receptor (Homo sapiens, UniProt P32239); assay: Whole cell receptor binding affinity (displacement of [125I]-[Leu15]-Gastrin I) on A431-CCK2R cells
T1 construct: expressed in transfected cells; host or cells: A431 human squamous carcinoma cells (gift from L. Aloj)
T1 sequence (P32239 1-447): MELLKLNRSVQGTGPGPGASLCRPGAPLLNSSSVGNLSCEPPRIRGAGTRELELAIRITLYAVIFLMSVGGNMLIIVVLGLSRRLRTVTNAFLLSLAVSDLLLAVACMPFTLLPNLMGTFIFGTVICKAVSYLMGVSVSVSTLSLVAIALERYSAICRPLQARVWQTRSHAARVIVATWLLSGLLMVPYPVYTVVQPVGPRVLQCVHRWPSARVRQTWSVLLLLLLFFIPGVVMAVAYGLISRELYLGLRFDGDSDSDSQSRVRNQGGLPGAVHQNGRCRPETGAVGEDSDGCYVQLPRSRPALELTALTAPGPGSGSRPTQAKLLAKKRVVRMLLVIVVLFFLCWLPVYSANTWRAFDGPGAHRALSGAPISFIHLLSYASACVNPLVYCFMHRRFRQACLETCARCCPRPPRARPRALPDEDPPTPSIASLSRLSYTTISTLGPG
Experimental: (§1) Receptor binding affinities were evaluated via a displacement cell-binding assay for metal free as well as metal bound ([^natGa]) conjugates. Binding of nonradioactive gallium was performed in analogy to the radiolabeling procedure but instead of the generator eluate a 100-fold molar excess of gallium bromide (GaBr3) dissolved in 100 μL 0.1 N HCl was used. Cells were prepared as described below and incubated with increasing concentrations [0.001–1000 nM] of competitor in triplicate. After addition of corresponding iodinated radioligand the 96-well MulitScreen Filter Plates HTS (1 μm glass fiber filter, Merck Millipore, Darmstadt, Germany) were incubated for 1 or 2 h at RT under shaking conditions (Compact shaker KS-15 control, 200/min) and after a washing step the remaining activity on the filter was measured in the γ-counter. The receptor affinity of DOTA-minigastrin11 as well as c(RGDyV) were determined under the corresponding conditions as a reference. IC50 values were calculated by using nonlinear curve fitting with following formula NS+SB/(1+x/IC50) on Origin 6.1 software (Northampton, MA, USA). A detailed description regarding iodination can be found in the Supporting Information.
A431-CCK2R cells were diluted in 50 mM HEPES buffer (pH 7.3) containing 5 mM MgCl2 and 0.3% BSA to a density of 5 × 10^6 cells/mL. 96-well plates were washed with 200 μL of 10 mM TRIS buffered saline (pH 7.3) and 100 μL of cell suspension were added to each well. Hereafter 50 μL of competitor solution {([^natGa])Sulfo-Cy7-FSC-MG or DOTA-minigastrin^11 diluted in 20 mM HEPES; 10 mM MgCl2 and 0.1% BSA} of each concentration were added and left for 10 min at RT. After incubation with 50 μL of radioligand (human [^125I]-[Leu^15]-Gastrin I 4.5 × 10^4 cpm) for 1 h the plate was washed twice with 200 μL TRIS-buffer/well.

[2] = test system: A431-CCK2R cells; assay: Fluorescence measured cell specificity, A431-CCK2R; assay type: cell-based, human; conditions: 2 h incubation, 3 nM ligand
Experimental: (§2) Fluorescence assays were conducted similarly to the internalization assays except for using lower cell numbers and determining only the cellbound fraction. Briefly, A431-CCK2R, M21, and M21-L cells were diluted in corresponding media to a density of 2 × 10^6 cells/mL. Aliquots of 0.5 mL were transferred to Eppendorf tubes—six technical replicates for A431-CCK2R unblocked and blocked and M21/M21-L, respectively—and treated in the same manner as described above. The nonradiolabeled particular ligand was added to a final concentration of 3 nM and the tubes were kept in an incubator (Incubator hood TH15 and Compact shaker KS-15 control, Edmund Bühler GmbH, Hechingen, Germany) at 37 °C for 2 h under vigorously shaking (420/min). After centrifugation (2 min, 5000 rpm) washing steps were performed as mentioned before. […] Fluorescence intensity was measured with Tecan Infinite 200 PRO series multiplate reader (Tecan Trading AG, Switzerland) by using Tecan Icontrol 1.1 software. Parameters were set as follows: Fluorescence Top reading; excitation/emission wavelength 740/790 nm; excitation bandwidth 9 nm; emission bandwidth 20 nm; gain optimal; number of flashes 25; integration time 25 μs. Results were calculated and expressed as percentage of cell-bound fluorescence in relation to the standards sample.

[3] = test system: A431-CCK2R/A431-mock tumor xenograft-bearing BALB/c nude mice; assay: Near-infrared fluorescence imaging, A431-CCK2R/A431-mock xenografts; assay type: in vivo, mouse
Experimental: (§3) All animal experiments were conducted in accordance with regulations and guidelines of the Czech Animal Protection Act (No. 246/1992), and with the approval of the Czech Ministry of Education, Youth, and Sports (MSMT-22421/2013–12), and the institutional Animal Welfare Committee of the Faculty of Medicine and Dentistry of Palacky University in Olomouc. The studies were performed using female 8–10-week-old athymic BALB/c nude mice (Envigo, Horst, The Netherlands). […]
(§4) Tumor xenografts were established near the front shoulder of mice by subcutaneous injection of 5 × 10^6 cells (U-87 MG) or 2 × 10^6 cells (A431-CCK2R) and the same amount of A431-mock cells as a control in 200 μL appropriate medium and Matrigel (1:1). […] Tumors, blood, muscle tissue, and organs were extracted, weighed, and activity uptake of the samples was measured in the gamma counter. Results were expressed as percentage of injected dose per gram tissue (% ID/g). […] After reconstruction, acquired data was viewed and analyzed with PMOD software (PMOD Technologies Ltd., Zurich, Switzerland). […] Near-infrared in vivo fluorescence imaging was performed with an In-Vivo MS FX PRO small animal imaging system (Bruker Biospin Corporation, Woodbridge, CT, USA). […] An appropriate filter set (excitation = 730 nm and emission = 790 nm) was used for acquiring the Sulfo-Cy7-FSC-peptide - fluorescence in vivo. […]

[4] = molecular target: T2, integrin αvβ3 (Homo sapiens, UniProt P05106+P06756); assay: Integrin binding affinity assay (displacement of [125I]-c(RGDyV)) on M21 cells; conditions: metal-free conjugate or reference peptide, radioligand [125I]-c(RGDyV), 2 h RT
T2 construct: endogenous in cells; host or cells: human melanoma M21 cells (gift from D. A. Cheresh)
T2 sequence (P06756 31-889 limits assumed): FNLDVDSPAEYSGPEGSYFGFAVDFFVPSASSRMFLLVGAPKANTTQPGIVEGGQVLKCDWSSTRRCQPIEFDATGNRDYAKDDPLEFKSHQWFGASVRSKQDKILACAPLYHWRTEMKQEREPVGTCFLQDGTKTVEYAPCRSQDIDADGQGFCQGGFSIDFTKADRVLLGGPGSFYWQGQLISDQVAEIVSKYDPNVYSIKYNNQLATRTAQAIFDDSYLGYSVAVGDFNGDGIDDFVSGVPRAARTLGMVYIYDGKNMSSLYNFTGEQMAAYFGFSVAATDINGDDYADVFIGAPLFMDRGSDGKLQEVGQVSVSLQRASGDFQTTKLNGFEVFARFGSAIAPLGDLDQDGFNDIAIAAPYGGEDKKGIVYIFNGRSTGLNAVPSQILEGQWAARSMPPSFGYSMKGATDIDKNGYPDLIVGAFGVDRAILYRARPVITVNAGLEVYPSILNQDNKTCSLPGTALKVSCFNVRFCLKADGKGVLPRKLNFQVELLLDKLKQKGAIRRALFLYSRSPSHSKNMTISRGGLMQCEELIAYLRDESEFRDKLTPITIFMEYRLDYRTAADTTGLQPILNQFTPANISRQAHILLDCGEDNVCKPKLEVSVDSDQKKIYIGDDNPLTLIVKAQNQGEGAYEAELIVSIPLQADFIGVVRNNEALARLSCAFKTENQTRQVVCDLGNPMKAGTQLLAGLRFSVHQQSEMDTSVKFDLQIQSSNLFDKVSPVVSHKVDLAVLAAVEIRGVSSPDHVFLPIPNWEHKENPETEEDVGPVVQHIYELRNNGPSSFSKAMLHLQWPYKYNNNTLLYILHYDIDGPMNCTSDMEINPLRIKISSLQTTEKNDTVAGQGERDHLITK
T2 sequence (P06756 891-1048 partner limits assumed): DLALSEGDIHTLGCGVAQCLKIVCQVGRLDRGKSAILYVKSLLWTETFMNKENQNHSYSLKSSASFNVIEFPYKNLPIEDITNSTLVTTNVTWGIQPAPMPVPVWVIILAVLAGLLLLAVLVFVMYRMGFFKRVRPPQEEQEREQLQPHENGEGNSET
T2 sequence (P05106 27-788): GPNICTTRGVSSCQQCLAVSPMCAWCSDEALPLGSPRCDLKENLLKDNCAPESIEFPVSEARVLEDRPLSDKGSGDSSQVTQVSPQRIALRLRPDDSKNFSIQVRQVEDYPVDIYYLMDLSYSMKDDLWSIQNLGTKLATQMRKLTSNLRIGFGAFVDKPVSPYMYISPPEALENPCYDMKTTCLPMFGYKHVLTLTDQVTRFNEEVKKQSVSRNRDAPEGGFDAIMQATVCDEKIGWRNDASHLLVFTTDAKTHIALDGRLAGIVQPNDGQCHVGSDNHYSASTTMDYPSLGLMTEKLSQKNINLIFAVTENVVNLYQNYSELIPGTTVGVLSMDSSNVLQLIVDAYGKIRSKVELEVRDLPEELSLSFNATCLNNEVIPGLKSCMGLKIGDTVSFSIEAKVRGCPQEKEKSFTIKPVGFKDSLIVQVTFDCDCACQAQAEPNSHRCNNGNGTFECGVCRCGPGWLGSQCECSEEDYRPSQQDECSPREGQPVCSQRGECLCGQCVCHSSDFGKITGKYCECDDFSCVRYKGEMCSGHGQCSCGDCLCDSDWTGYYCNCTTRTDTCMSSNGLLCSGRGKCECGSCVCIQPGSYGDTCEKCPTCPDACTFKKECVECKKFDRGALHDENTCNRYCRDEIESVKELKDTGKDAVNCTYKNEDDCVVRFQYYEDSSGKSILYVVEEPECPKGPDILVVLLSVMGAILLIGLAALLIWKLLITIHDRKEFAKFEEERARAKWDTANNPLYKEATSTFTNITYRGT
Experimental: as §1
Integrin binding affinity assay was adapted from Yun Wu et al.[31] Briefly, M21 cells were washed two times with phosphate buffered saline followed by suspension in binding buffer (=20 mM TRIS pH 7.4 + 150 mM NaCl + 2 mM CaCl2 + 1 mM MgCl2 + 1 mM MnCl2 0.1% BSA). 96-well plates were washed with 200 μL of 20 mM TRIS-buffer and seeded with 1 × 10^6 cells/well (10^7 cells/mL). After 10 min of incubation in the presence of the competitor {([^natGa])Sulfo-Cy7-FSC-RGD or c(RGDyV) diluted in binding buffer)} volume was adjusted to 200 μL/well by adding 50 μL of radioligand ([^125I]-c(RGDyV), 4.5 × 10^4 cpm) and the plate was left for 2 h at RT. Finally the supernatant was removed by vacuum and each well was washed three times with 200 μL ice-cold binding buffer.

[5] = test system: M21 (αvβ3-positive) cells; assay: Fluorescence measured cell specificity, M21; assay type: cell-based, human; conditions: 2 h incubation, 3 nM ligand
Experimental: as §2

[6] = test system: M21-L (αvβ3-negative) cells; assay: Fluorescence measured cell specificity, M21-L; assay type: cell-based, human; conditions: 2 h incubation, 3 nM ligand
Experimental: as §2

[7] = test system: mice bearing U-87MG tumor xenografts; assay: Near-infrared fluorescence imaging, U-87MG xenografts; assay type: in vivo, mouse
Experimental: as §3, §4

[8] = molecular target: T1, human CCK-2 receptor; parameters: method as in unpublished data; conditions: comparison value, slight variances in experimental setting; ref unpublished data; cited from earlier work

CSCC[C@H](NC(=O)[C@H](Cc1c[nH]c2ccccc12)NC(=O)CNC(=O)[C@H](Cc1ccc(O)cc1)NC(=O)[C@H](C)NC(=O)[C@@H](CCC(=O)O)NC(=O)CCSC1CC(=O)N(CCC(=O)NC2CCCN(O)C(=O)C=C(C)CCOC(=O)C(NC(=O)CCN3C(=O)CC(SCCC(=O)N[C@H](CCC(=O)O)C(=O)N[C@@H](C)C(=O)N[C@@H](Cc4ccc(O)cc4)C(=O)NCC(=O)N[C@@H](Cc4c[nH]c5ccccc45)C(=O)N[C@@H](CCSC)C(=O)N[C@@H](CC(=O)O)C(=O)N[C@@H](Cc4ccccc4)C(N)=O)C3=O)CCCN(O)C(=O)C=C(C)CCOC(=O)C(NC(=O)CCCCC[N+]3=C(C=CC4=CC(=CC=C5N(C)c6ccc(S(=O)(=O)O)cc6C5(C)C)CCC4)C(C)(C)c4cc(S(=O)(=O)[O-])ccc43)CCCN(O)C(=O)C=C(C)CCOC2=O)C1=O)C(=O)N[C@@H](CC(=O)O)C(=O)N[C@@H](Cc1ccccc1)C(N)=O (stereo partly drawn) [Sulfo-Cy7-FSC-MG, Sulfo-Cyanine7-FSC-(mal-MG11)2] (I: [Mpa][dE]AYGWMDF-NH2 / II: [Mpa][dE]AYGWMDF-NH2; linker I:1-II:1 via X2)
IC50 ([1]; metal-bound ([natGa]) complexed form): 2.68 ± 0.53 nM | IC50 ([1]; metal-free (uncomplexed) conjugate or reference peptide, radioligand [125I]-[Leu15]-Gastrin I, 1 h RT): 2.81 ± 0.66 nM | Fluorescence-determined cell uptake ([2]; blocked A431-CCK2R cells): 1.65 ± 0.47% | Fluorescence-determined cell uptake ([2]; nonblocked A431-CCK2R cells): 10.78 ± 1.04% | optical imaging tumor contrast ([3]; 2 h after injection): moderate contrast | optical imaging tumor contrast ([3]; 5 h up to 3 days p.i.): excellent contrast

CC1=CC(=O)N(O)CCCC(NC(=O)CCN2C(=O)CC(SCCOCCOCCOCCOCCC(=O)NCCCC[C@@H]3NC(=O)[C@@H](Cc4ccccc4)NC(=O)[C@H](CC(=O)O)NC(=O)CNC(=O)[C@H](CCCNC(=N)N)NC3=O)C2=O)C(=O)OCCC(C)=CC(=O)N(O)CCCC(NC(=O)CCN2C(=O)CC(SCCOCCOCCOCCOCCC(=O)NCCCC[C@@H]3NC(=O)[C@@H](Cc4ccccc4)NC(=O)[C@H](CC(=O)O)NC(=O)CNC(=O)[C@H](CCCNC(=N)N)NC3=O)C2=O)C(=O)OCCC(C)=CC(=O)N(O)CCCC(NC(=O)CCCCC[N+]2=C(C=CC3=CC(=CC=C4N(C)c5ccc(S(=O)(=O)O)cc5C4(C)C)CCC3)C(C)(C)c3cc(S(=O)(=O)[O-])ccc32)C(=O)OCC1 (stereo partly drawn) [Sulfo-Cy7-FSC-RGD, Sulfo-Cyanine7-FSC-(mal-c(RGDfK)-(PEG4))2]
IC50 [4]: 1.13 ± 0.22 nM | Fluorescence-determined cell uptake [5]: 5.79 ± 0.88% | Fluorescence-determined cell uptake [6]: 1.74 ± 0.25% | time of best contrast in fluorescence imaging ([7]; after administration): 24 h | tumor retention in fluorescence imaging ([7]; two days after injection): completely washed out from tumor tissue

nonfluorescent divalent FSC-MG derivative: nonfluorescent divalent FSC-MG derivative, authors' unpublished data used for comparison (EAYGWMDF; Synthetic minigastrin analogue MG11, converted from the printed [D-Glu1,desGlu2-6]-Ala-Tyr-Gly-Trp-Met-Asp-Phe-NH2; Glu1 is D-Glu; C-terminal amide; Two peptides on one Fusarinine C chelator, no fluor)
IC50 [8]: 0.9 ± 0.2 nM
